Reference: ChEMBL document CHEMBL1201862, “PubChem BioAssay data set” (2004)
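Exposure lasted 48 hours, with cells grown in 96-well plates and compounds tested at five concentrations. GI50: concentration for 50% inhibition of growth.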 Active and inactive are the calls of the source. Cut-off read from the data, not from the text of the source: active = GI50 up to about 1.1 µM and inactive = higher.

Assays:
Assay in all cases: NCI tumour cell line growth inhibition, 48 h
[1] = tested on: SN12C
[2] = tested on: LOX IMVI
[3] = tested on: HCT-116
[4] = tested on: OVCAR-4
[5] = tested on: NCI-H522
[6] = tested on: OVCAR-3
[7] = tested on: 786-0
[8] = tested on: U-251
[9] = tested on: UACC-62
[10] = tested on: SK-OV-3
[11] = tested on: SW-620
[12] = tested on: UO-31
[13] = tested on: COLO 205
[14] = tested on: RPMI-8226
[15] = tested on: SK-MEL-2
[16] = tested on: HL-60
[17] = tested on: NCI/ADR-RES
[18] = tested on: MCF7
[19] = tested on: PC-3

Measured: GI50

COC(=O)C(C(=O)C(=O)Nc1nc2ccc(OC)cc2s1)c1cnc2ccccc2n1 (stereo not drawn)
inactive: [1] > 100 µM | [2] > 100 µM | [3] > 100 µM | [4] > 100 µM | [5] > 100 µM | [6] > 100 µM | [7] > 100 µM | [8] > 100 µM | [9] > 100 µM | [10] > 100 µM | [11] > 100 µM | [12] > 100 µM | [13] > 100 µM | [14] > 100 µM

CN1CCN(CCSC2Cc3cc(Cl)ccc3Sc3ccccc32)CC1 (stereo not drawn)
inactive: [1] 9.12 µM | [2] 2.28 µM | [3] 5.69 µM | [4] 6.81 µM | [5] 5.93 µM | [6] 8.2 µM | [7] 4.55 µM | [8] 5.4 µM | [9] 1.91 µM | [10] 16.7 µM | [11] 2.81 µM | [12] 8.11 µM | [15] 1.86 µM | [13] 1.74 µM | [16] 1.73 µM | [14] 2.26 µM

O=C(NCCN1CCOCC1)c1ccc(I)cc1
inactive: [17] > 100 µM | [1] > 100 µM | [2] > 100 µM | [18] > 100 µM | [4] > 100 µM | [6] > 100 µM | [7] > 100 µM | [8] > 100 µM | [9] > 100 µM | [19] > 100 µM | [10] > 100 µM | [11] > 100 µM | [12] > 100 µM | [16] > 100 µM | [14] > 100 µM

O=C(Nc1nc2ncn(CCNCCn3cnc4nc(NC(=O)c5ccccc5)[nH]c(=O)c43)c2c(=O)[nH]1)c1ccccc1
inactive: [1] > 100 µM | [2] > 100 µM | [3] > 100 µM | [4] > 100 µM | [5] > 100 µM | [6] > 100 µM | [7] > 100 µM | [8] > 100 µM | [9] > 100 µM | [10] > 100 µM | [11] > 100 µM | [12] > 100 µM | [15] > 100 µM | [13] > 100 µM | [16] > 100 µM | [14] > 100 µM

FC(F)(F)c1ccccc1C1SCc2nc3ccccc3n21 (stereo not drawn)
inactive: [1] 31.6 µM | [3] 39.1 µM | [5] 18.3 µM | [6] 40.1 µM | [7] > 100 µM | [8] 88.5 µM | [9] 22.5 µM | [10] 60.7 µM | [11] > 100 µM | [12] 49.7 µM | [15] 99.3 µM | [13] 59.8 µM | [16] 10.2 µM | [14] 23 µM

COc1cc2ccc(CC(=O)O)cc2cc1OC
inactive: [1] > 100 µM | [3] > 100 µM | [4] > 100 µM | [5] > 100 µM | [6] > 100 µM | [7] > 100 µM | [8] > 100 µM | [9] > 100 µM | [10] > 100 µM | [11] > 100 µM | [12] > 100 µM | [15] > 100 µM | [13] > 100 µM | [16] > 100 µM | [14] > 100 µM

COC(=O)[C@@]12CC(C(C)C)[C@H]3CC(C(=O)C=C1OC)[C@H]32 (stereo partly drawn)
inactive: [1] > 100 µM | [3] > 100 µM | [4] > 100 µM | [6] > 100 µM | [7] > 100 µM | [8] > 100 µM | [9] > 100 µM | [10] > 100 µM | [11] > 100 µM | [15] > 100 µM | [13] > 100 µM | [16] > 100 µM | [14] > 100 µM

Cc1ccc(C(=O)c2nnc(C(=O)c3ccc(C)cc3)nn2)cc1
inactive: [1] 45.3 µM | [2] 17.6 µM | [3] 57.5 µM | [4] 41.1 µM | [5] 35.5 µM | [6] 43.4 µM | [7] 28.2 µM | [8] 40.7 µM | [9] 36.1 µM | [10] 19.3 µM | [11] 20.8 µM | [12] 39.2 µM | [15] 38.4 µM | [13] 70.1 µM | [16] 19.7 µM | [14] 30.5 µM

O=C(O)c1ccc(/N=N/c2cc(S(=O)(=O)O)c3cccnc3c2O)cc1
inactive: [1] > 100 µM | [2] > 100 µM | [3] > 100 µM | [4] > 100 µM | [6] > 100 µM | [7] > 100 µM | [8] > 100 µM | [10] > 100 µM | [11] > 100 µM | [12] > 100 µM | [15] > 100 µM | [13] > 100 µM | [16] > 100 µM | [14] > 100 µM
